In brackets after ≈: the same amount, converted by molar mass. Like-named read-outs stand apart in the source and are kept apart here.
Columns and labels:
[1] = test system: human colon cancer cell line HCT-116; assay: Cytotoxicity, MTS assay
[2] = test system: Escherichia coli (ATCC25922); assay: Antibacterial activity, broth dilution method (Mueller–Hinton broth), MIC
[3] = test system: Methicillin-resistant staphylococcus aureus (R3708); assay: as above
[4] = test system: Staphylococcus aureus (ATCC29213); assay: as above
[5] = test system: Staphylococcus aureus (ATCC29213), Methicillin-resistant staphylococcus aureus (R3708) and Escherichia coli (ATCC25922); assay: Antibacterial activity against three multidrug-resistant bacteria, broth dilution (summary statements)
[6] = test system: human embryonic kidney (HEK) 293 cell line; assay: Cytotoxicity, MTS assay
[7] = ATCC25922|ATCC29213, read-out: MIC values ranging over the three bacteria

Row | Compound | IC50 ([1]; Homo sapiens, HCT-116, 72 h) | MIC [2] | MIC [3] | MIC [4] | MIC [5] | IC50 ([6]; Homo sapiens, HEK293, 72 h) | other results
1 | O=c1[nH]cc(F)c(=O)[nH]1 [5-Fluorouracil, reference compound] | 2.04 ± 0.22 µM | – | – | – | – | – | –
2 | CC1(C)S[C@@H]2[C@H](NC(=O)[C@H](N)c3ccccc3)C(=O)N2[C@H]1C(=O)O [Ampicillin sodium, reference compound] | – | 6.73 µM | 129 µM | 8.07 µM | – | – | –
3 | COC1(CO)C(=O)n2c(cc3ccccc32)C(=O)N1C (stereo not drawn) [Compound 2, 1,2,3,4-tetrahydro-3-methoxyl-3-hydroxylmethyl-2-methyl-1,4-dioxopyrazino[1,2-a]indole] | – | – | – | – | > 256 µg/mL | – | –
4 | CC1C(=O)n2c(cc3ccccc32)C(=O)N1C (stereo not drawn) [Compound 3, 1,2,3,4-tetrahydro-2,3-dimethyl-1,4-dioxopyrazino[1,2-a]indole] | – | – | – | – | > 256 µg/mL | – | –
5 | C=c1c(=O)n2c(cc3ccccc32)c(=O)n1C [Compound 4, 1,2,3,4-tetrahydro-2-methyl-3-methylene-1,4-dioxopyrazino[1,2-a]indole] | 10.3 ± 1.41 µM | > 1130 µM | 70.7 µM (≈ 16 µg/mL) | 283 µM (≈ 64 µg/mL) | – | 30.1 ± 0.9 µM | –
6 | CN1C(=O)C(=O)n2c(cc3ccccc32)C1=O [Compound 5, 1,2,3,4-tetrahydro-2-methyl-1,3,4-trioxopyrazino[1,2-a]indole] | > 50 µM | – | – | – | > 256 µg/mL | > 50 µM | –
7 | CNC(=O)c1cc2ccccc2[nH]1 [Compound 6, N-methyl-1H-indole-2-carboxamide] | – | – | – | – | > 256 µg/mL | – | –
8 | CN1C(=O)[C@]23CC4=CC=C[C@H](O)[C@H]4N2C(=O)[C@@]1(CO)SS3 [Compound 7, gliotoxin] | 1.24 ± 0.38 µM | 24.5 µM (≈ 8.01 µg/mL) | 1.53 µM (≈ 0.499 µg/mL) | 12.2 µM (≈ 3.98 µg/mL) | – | 1.58 ± 0.03 µM | MIC [5, 7]: 1.52 to 97.6 µM
9 | CC(=O)OC1C=CC=C2CC34SSC(CO)(C(=O)N3C21)N(C)C4=O (stereo not drawn) [Compound 8, acetylgliotoxin] | 0.89 ± 0.04 µM | > 696 µM | 21.7 µM (≈ 8.01 µg/mL) | 86.9 µM (≈ 32 µg/mL) | – | 4.49 ± 0.24 µM | –
10 | CN1C(=O)C2(S)CC3=CC=CC(O)C3N2C(=O)C1(S)CO (stereo not drawn) [Compound 9, reduced gliotoxin] | 0.43 ± 0.04 µM | 97.6 µM (≈ 32 µg/mL) | 1.52 µM (≈ 0.499 µg/mL) | 48.8 µM (≈ 16 µg/mL) | – | 1.26 ± 0.04 µM | MIC [5, 7]: 1.52 to 97.6 µM
11 | CSC1(CO)C(=O)N2C3C(=CC=CC3OC(C)=O)CC2(SC)C(=O)N1C (stereo not drawn) [Compound 10, 6-acetylbis(methylthio)gliotoxin] | > 50 µM | – | – | – | > 256 µg/mL | > 50 µM | –
12 | CSC1(CO)C(=O)N2c3ccccc3CC2(SC)C(=O)N1C (stereo not drawn) [Compound 12, didehydrobisdethiobis(methylthio)gliotoxin] | > 50 µM | – | – | – | > 256 µg/mL | > 50 µM | –
13 | CSC1(CO)NC(=O)C(Cc2ccccc2)(SC)NC1=O (stereo not drawn) [Compound 13, bis-N-norgliovictin] | > 50 µM | – | – | – | > 256 µg/mL | > 50 µM | –
14 | CN[C@H](CC(C)C)C(=O)N[C@H]1C(=O)N[C@@H](CC(N)=O)C(=O)N[C@H]2C(=O)N[C@H]3C(=O)N[C@H](C(=O)N[C@H](C(=O)O)c4cc(O)cc(O)c4-c4cc3ccc4O)[C@H](O)c3ccc(c(Cl)c3)Oc3cc2cc(c3O[C@@H]2O[C@H](CO)[C@@H](O)[C@H](O)[C@H]2O[C@H]2C[C@](C)(N)[C@H](O)[C@H](C)O2)Oc2ccc(cc2Cl)[C@H]1O [Vancomycin, reference compound] | – | – | 2.01 µM (≈ 2.91 µg/mL) | 0.84 µM (≈ 1.22 µg/mL) | – | – | –
15 | bisdethiobis(methylthio)gliotoxin [Compound 11] | – | – | – | – | – | – | IC50 ([1]; HCT-116 cells, 72 h, MTS, n = 5): 8.59 ± 0.96 µM; IC50 ([6]; 293 cells, 72 h, MTS, n = 5): 16.4 ± 0.38 µM
